# In PMC12316928, “Synthesis and evaluation of novel thiohydantoin derivatives for antidiabetic activity using in silico in vitro and in vivo methods” (Scientific Reports, 2025):
# Values joined by “and” are separate entries in the source; they are usually repeats but may differ in a detail not shown here. Equal values may be shown once. “Also recorded” adds a separate entry of the source.
# Legend:
# [1] = DPPH free radical scavenging assay
# Procedure: The antioxidant activity of synthesized compounds was evaluated using the DPPH free-radical scavenging assay, following the methodology outlined by[34]. This assay is based on the principle that the stable free radical DPPH undergoes a color change from deep purple to yellow upon reduction, indicating hydrogen donation from antioxidant compounds. Different concentrations (3.12, 6.25, 12.5, 25, 50, 100, and 200 µg/mL) of test compounds were prepared in methanol. A 200 µL aliquot of each concentration was mixed with 50 µL of freshly prepared DPPH solution (0.659 mM). The reaction mixtures were incubated at room temperature for 20 min in the dark. Absorbance was recorded at 510 nm using an ELISA microplate reader. Trolox was employed as the reference antioxidant, and the percentage of inhibition was calculated using the following equation:
# % Inhibition = [(A0 − A1)/A0] × 100.
# Where A0 is the absorbance of the control, and A1 is the absorbance of the sample[34].
# Cytotoxicity MTT assay = assay type: cell-based; details: mouse, 3T3 fibroblast cells, 48 h, Mean ± SD, n = 3, read-out: IC₅₀ cytotoxicity MTT
# Procedure: (§1) The cytotoxic effects of the selected compounds were evaluated against the 3T3 fibroblast cell line (Sigma-Aldrich, product no. 90020107) using the MTT (3-(4,5-dimethylthiazol-2-yl)−2,5-diphenyl tetrazolium bromide) assay, following the protocol established by Mosmann[38]. A cell suspension containing 1 × 10⁵ cells per well was seeded into a 96-well plate and incubated at 37 °C with 5% CO₂ for 48 h. The cells were then treated with different concentrations of test compounds (4, 16, 63, 250, and 1000 µg/mL, dissolved in DMSO) and incubated for an additional 48 h. Following incubation, 180 µL of MTT solution (5 mg/mL in PBS) was added to each well and incubated for 4 h. The formazan crystals formed were solubilized, and absorbance was measured at 570 nm using an ELISA reader. Celecoxib was used as a positive control.
# 3T3 fibroblast cell line = assay: Cytotoxicity MTT assay; assay type: cell-based
# Procedure: as §1
# [2] = target: T1, α-glucosidase (EC3.2.1.20) (Saccharomyces cerevisiae, UniProt P53341); assay: α-Glucosidase inhibitory activity assay; assay type: biochemical; details: for inhibition at 200 µg/mL: read-out: %Inhibition (200 µg/ml) alpha glucosidase
# T1 construct: purchased Sigma-Aldrich
# Procedure: The ability of the synthesized compounds to inhibit α-glucosidase was determined as per the method described by[35]. […] After incubation at 37 °C for 10 min, the reaction was initiated by adding 25 µL of substrate (4 mM) and further incubating at 37 °C for 20 min. The absorbance was measured at 405 nm.
# [3] = system: STZ-induced diabetic rats; assay: Effect on FBG, body weight and HbA1C over 6 weeks; assay type: in vivo, Sprague Dawley rats; set-up: % Reduction in FBG: concentration or dose not given beside the values; details: for BW (Day 0) / FBG (Day 0): Day 0, baseline; for % Change in BW / % Reduction in FBG: Day 0 to Day 42; for BW (Day 42) / FBG (Day 42): Day 42 of treatment; for HbA1C: end of 6-week treatment
# Procedure: (§2) Diabetes will be induced in rats (n = 6 per group) by a single intraperitoneal injection of 60-100 mg/kg body weight (BW) streptozotocin dissolved in normal saline. After 5 days of streptozotocin injection, the tail vein blood will be collected to determine the fasting blood glucose (FBG) level. Only rats with FBG over 200 mg/dl will be considered diabetic and used for further experimentation.
# Diabetic Rats (n = 6 per group) will be randomly assigned to groups of six animals each in order to examine the impact of synthetic derivatives on FBG level, BW, and HbA1C. The course of treatment will last for six weeks. At the beginning of the experiment and at weekly intervals during the first 42 days of therapy, the FBG level and BW will be measured. Rats will be denied food for 12 h while fasting, but they will have unrestricted access to water. Commercial glucose oxidase kits will be used to measure the blood glucose level. Blood 7 will be collected through cardiac puncture at the end of study period and levels of HbA1C will be determined. Metformin will be used as standard for comparison purpose.
# [4] = system: STZ-induced diabetic rats; assay: Physiological parameters (lipid profile); assay type: in vivo, Sprague Dawley rats; details: Fig. 1; for HDL / LDL / triglycerides: after treatment
# Procedure: as §2
# Animals will be sacrificed after […] of treatment and parameters including LDL, triglycerides, HDL cholesterol, and glucose will be determined by using KONELAB SYSTEM (Thermo Fisher Scientific, Finland) according to manufacturer’s guidelines.
# [5] = system: STZ-induced diabetic rats; assay: Fasting blood glucose and oral glucose tolerance test (OGTT); assay type: in vivo, Sprague Dawley rats; details: for OGTT (after 120 min): 120 min after glucose 2.0 g/kg; for Fasting blood glucose: Table 7, mean ± SD, 5 rats per group; for FBG and OGTT reduction in words: compared to diabetic control
# Procedure: […] After 5 days of streptozotocin injection, the tail vein blood will be collected to determine the fasting blood glucose (FBG) level. Only rats with FBG over 200 mg/dl will be considered diabetic and used for further experimentation.
# This assay will be performed in animals after fasting for an overnight (12 h). Then, rats will receive a bolus of glucose (2.0 g/kg body weight) followed by test molecule or control and plasma glucose will be measured from blood collected from tail vein at 0, 30, 60, 90 and 120 min after glucose administration. Plasma glucose levels will be analyzed using commercially available glucometer kits[40].
# [6] = relative to positive control (diabetic rats), Fig. 2
# T1 sequence (P53341 whole entry): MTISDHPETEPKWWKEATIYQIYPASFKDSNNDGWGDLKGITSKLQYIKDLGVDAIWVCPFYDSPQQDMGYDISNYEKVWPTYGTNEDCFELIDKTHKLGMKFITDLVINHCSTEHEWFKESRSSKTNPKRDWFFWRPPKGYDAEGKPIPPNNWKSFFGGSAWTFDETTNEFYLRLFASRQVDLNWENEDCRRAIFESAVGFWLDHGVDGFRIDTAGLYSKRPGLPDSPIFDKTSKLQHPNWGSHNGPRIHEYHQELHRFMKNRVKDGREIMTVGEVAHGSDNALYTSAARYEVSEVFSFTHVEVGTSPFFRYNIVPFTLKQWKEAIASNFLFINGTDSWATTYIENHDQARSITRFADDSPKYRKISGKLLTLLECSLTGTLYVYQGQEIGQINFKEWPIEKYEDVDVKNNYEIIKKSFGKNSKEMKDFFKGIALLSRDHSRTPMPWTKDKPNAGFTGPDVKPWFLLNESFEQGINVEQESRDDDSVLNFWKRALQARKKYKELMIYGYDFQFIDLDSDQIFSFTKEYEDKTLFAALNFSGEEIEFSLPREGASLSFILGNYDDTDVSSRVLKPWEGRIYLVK
Structure (SMILES),DPPH free radical scavenging % inhibition ([1]; 3.12 µg/mL) [%],DPPH free radical scavenging % inhibition ([1]; 6.25 µg/mL) [%],DPPH free radical scavenging % inhibition ([1]; 12.5 µg/mL) [%],DPPH free radical scavenging % inhibition ([1]; 25 µg/mL) [%],DPPH free radical scavenging % inhibition ([1]; 50 µg/mL) [%],DPPH free radical scavenging % inhibition ([1]; 100 µg/mL) [%],DPPH free radical scavenging % inhibition ([1]; 200 µg/mL) [%],IC50 at 48 h (Cytotoxicity MTT assay) [µg/mL],Cytotoxicity category (3T3 fibroblast cell line),inhibition at 200 µg/mL [2] [%],BW (Day 0) [3] [g],FBG (Day 0) [3] [mg/dL],% Reduction in FBG [3] [%],BW (Day 42) [3] [g],FBG (Day 42) [3] [mg/dL],HbA1C [3],OGTT (after 120 min) [5] [mg/dL],Fasting blood glucose [5] [mg/dL],other results
"O=C1O[C@H]([C@@H](O)CO)C(O)=C1O [Ascorbic Acid, reference compound]",30.2 ± 1.9,50.6 ± 2.5,68.9 ± 2.8,82.3 ± 3.1,89.6 ± 3.3,94.2 ± 3.5,96.8 ± 3.7,–,–,–,–,–,–,–,–,–,–,–,–
"Cc1ccc(-c2cc(C(F)(F)F)nn2-c2ccc(S(N)(=O)=O)cc2)cc1 [Celecoxib, reference compound]",–,–,–,–,–,–,–,342 ± 9.7,Moderate cytotoxicity,–,–,–,–,–,–,–,–,–,–
"O=C1CN(S(=O)(=O)c2cccc(C(=O)O)c2)C(=S)N1 [FP2, 3-(4-oxo-2-sulfanylideneimidazolidine-1-sulfonyl)benzoic acid]",18.4 ± 1.3,31.3 ± 1.9,47.6 ± 2.4,62.9 ± 2.8,74.5 ± 3.1,79.8 ± 3.2,82.6 ± 3.3,845 ± 12.7,Low cytotoxicity,48.1 ± 0.94,218.3 ± 7.5,280.5 ± 10.1,24.9,202.8 ± 7.9,210.7 ± 9.6,7.5% and 7.5 ± 0.4%,288.0 ± 9.5,229.9 ± 7.6,"IC₅₀ (concentration required to inhibit 50% of DPPH free radicals) [1]: 52.4 ± 2.5 µg/mL; % Change in BW [3]: −7.1%; lipid profile effect in words [4]: moderate improvements; FBG and OGTT reduction in words [5]: significant reductions; percentage reduction in FBG [5, 6]: 18.5%"
"CC(=O)c1cccc(S(=O)(=O)N2CC(=O)NC2=S)c1 [FP4, 1-(3-acetylbenzene-1-sulfonyl)−2-sulfanylideneimidazolidin-4-one]",22.1 ± 1.5,38.2 ± 2.1,55.7 ± 2.6,71.6 ± 3.0,81.2 ± 3.5,85.9 ± 3.7,87.4 ± 3.9,598 ± 11.4,Moderate cytotoxicity,51.4 ± 1.25,215.9 ± 7.8,279.1 ± 9.7,28.9,205.7 ± 8.6,198.4 ± 8.3,7.2 ± 0.3%,275.2 ± 9.1,218.4 ± 7.3,"IC50 ([2]; Mean ± SD, read-out: IC50 alpha glucosidase (converted)): 434 µM; % Change in BW [3]: −4.7%; HDL [4]: 42.3 ± 2.5 mg/dL; LDL [4]: 54.8 ± 3.1 mg/dL; triglycerides [4]: 112.5 ± 6.2 mg/dL; percentage reduction in FBG [5, 6]: 22.6%; percentage reduction in OGTT [5, 6]: 19.4%"
"COc1ccc(S(=O)(=O)N2CC(=O)NC2=S)cc1C(=O)O [FP6, 2-methoxy-5-(4-oxo-2-sulfanylideneimidazolidine-1-sulfonyl)benzoic acid]",8.5 ± 0.8,16.2 ± 1.1,24.9 ± 1.6,36.4 ± 2.2,44.7 ± 2.5,49.8 ± 2.6,53.6 ± 2.8,> 900,negligible cytotoxicity; also recorded: Non-toxic,36.4 ± 1.03,–,–,–,–,–,–,307.5 ± 10.4,249.1 ± 8.5,"alpha-glucosidase inhibition in words [2]: inactive; IC₅₀ cytotoxicity MTT (3T3 fibroblast cell line; 48 h, Mean ± SD, n = 3): 930.4 ± 10.6 µg/mL; FBG and OGTT reduction in words [5]: minor reductions"
"CN(C)C(=N)N=C(N)N [Metformin, reference compound]",–,–,–,–,–,–,–,–,–,–,216.2 ± 8.0,282.3 ± 10.5,49.5,225.6 ± 9.4,142.5 ± 7.8,6.1 ± 0.3%,159.4 ± 8.3,119.2 ± 6.5,HDL [4]: 49.2 ± 2.7 mg/dL; LDL [4]: 45.1 ± 2.4 mg/dL; triglycerides [4]: 94.3 ± 5.1 mg/dL
"OCCN1C[C@H](O)[C@@H](O)[C@H](O)[C@H]1CO [Miglitol, reference compound]",–,–,–,–,–,–,–,–,–,–,–,–,–,–,–,–,–,–,inhibition at 50 µg/mL ([2]; read-out: %Inhibition alpha glucosidase): 87.9 ± 1.09%
